Assay results as given in patent US20100075979A1, “PYRIDINYLPIPERAZIN DERIVATIVES USEFUL AS MODULATORS OF DOPAMINE D3 RECEPTORS” (priority 2008, published 2010).

Target: T1, human D3 dopamine receptor (Homo sapiens, UniProt P35462)
T1 construct: expressed in transfected cells; host or cells: HEK-293 EBNA cells (transient transfection; membrane preparation)
Test: Radioligand binding assay ([3H]-spiperone) on membranes of HEK-293 EBNA cells expressing human D3 receptor
Details: [3H]-spiperone approx. 0.5 nM, 1 h at RT, cloned human D3 in HEK-293 EBNA membranes; Ki by Cheng-Prusoff
Description: The ability of the compounds to bind to the D3 receptors was determined using radioligand binding to cloned receptors selectively expressed in HEK-293 EBNA cells.
HEK-293 EBNA cells were transiently transfected with expression plasmids encoding for the human D3 dopamine receptor. The cells were harvested 48 h post-transfection, washed three times with cold PBS and stored at −80° C. prior to use. The pellet was suspended in cold 50 mM
Tris-HCl buffer containing 10 mM EDTA (pH 7.4) and homogenized with a Polytron (Kinematica AG, Basel, Switzerland) for 20-30 sec at 12.000 rpm. After centrifugation at 48.000×g for 30 min at 4° C., the pellet was resuspended in cold 10 mM Tris-HCl buffer containing 0.1 mM EDTA (pH 7.4), homogenized, and centrifuged as above. This pellet was further resuspended in a smaller volume of ice cold 10 mM Tris-HCl buffer containing 0.1 mM EDTA (pH 7.4) and homogenized with a Polytron for 20-30 sec at 12.000 rpm. The protein content of this homogenate was determined with the Bio-Rad (Bradford) Protein Assay (Biorad Laboratories GmbH, München, Germany) according to the instructions of the manufacturer using gamma globulin as the standard.
This homogenate was stored at −80° C. in aliquots and thawed immediately prior to use.
Aliquots of membrane preparations were thawed at RT, resuspended in assay buffer (50 mM Tris-HCl, 120 mM NaCl, 5 mM MgCl2, 1 mM EDTA, 5 mM KCl, 1.5 mM CaCl2, pH=7.4), homogenized with a Polytron for 20-30 sec at 12.000 rpm and adjusted to a final concentration of approximately 7.5 μg protein/well.
The binding affinity (Ki) of the compounds was determined using radioligand binding. Membranes were incubated in a total volume of 200 μl with a fixed concentration of radioligand (final concentration approximately 0.5 nM [^3H]-spiperone) and ten concentrations of test compound in ranging between 10 μM-0.1 nM for 1 h at RT. At the end of the incubation, the reaction mixtures were filtered on to unifilter 96-well white microplates with bonded GF/C filters (Packard BioScience, Zurich, Switzerland; preincubated for 1 h in 0.1% polyethylenimine (PEI) in assay buffer) with a Filtermate 196 harvester (Packard BioScience) and washed 3 times with cold assay buffer. The nonspecific binding was determined with equally composed reaction mixtures in the presence of 10 μM unlabelled spiperone. Per well 45 μl of Microscint 40 (Perkin Elmer, Schwerzenbach, Switzerland) was added, plates for sealed, shaken for 20 min and counted for 3 min on a Topcount Microplate Scintillation Counter (Canberra Packard SA, Zürich, Switzerland) with quenching correction.
The CPM value for each duplicate of a concentration of competing compound was averaged (y1), then the % specific binding was calculated according to the equation (((y1−non-specific)/(total binding-non-specific))×100). Graphs were plotted with the % specific binding using XLfit, a curve fitting program that iteratively plots the data using Levenburg Marquardt algorithm. The single site competition analysis equation used was y=A+((B−A)/(1+((x/C)^D))), where y is the % specific binding, A is the minimum y, B is the maximum y, C is the IC50, x is the log10 of the concentration of the competing compound and D is the slope of the curve (the Hill Coefficient). From these curves the IC50 (inhibition concentration at which 50% specific binding of the radioligand was displaced) and Hill coefficient were determined. The affinity constant (Ki) was calculated using the Cheng-Prusoff equation Ki=(IC50/1+([L]/Kd), where [L] is the concentration of radioligand and Kd is the dissociation constant of the radioligand at the receptor as determined by the saturation isotherm.

T1 sequence (P35462 whole entry): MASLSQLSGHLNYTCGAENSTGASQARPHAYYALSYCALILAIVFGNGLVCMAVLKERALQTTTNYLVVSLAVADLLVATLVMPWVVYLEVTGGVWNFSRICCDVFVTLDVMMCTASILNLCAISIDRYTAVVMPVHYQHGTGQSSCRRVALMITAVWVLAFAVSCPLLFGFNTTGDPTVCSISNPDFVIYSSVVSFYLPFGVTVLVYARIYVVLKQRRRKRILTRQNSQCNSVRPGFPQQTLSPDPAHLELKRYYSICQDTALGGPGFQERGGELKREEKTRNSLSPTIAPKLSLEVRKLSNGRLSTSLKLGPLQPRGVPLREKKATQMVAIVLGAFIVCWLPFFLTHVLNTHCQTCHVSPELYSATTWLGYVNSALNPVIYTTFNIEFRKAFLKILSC

Compound	Ki
O=C(CC1CC1)N[C@H]1CC[C@H](CCN2CCN(c3ncc(C(F)(F)F)cc3Cl)CC2)CC1 [Example 4, N-(trans-4-{2-[4-(3-Chloro-5-trifluoromethyl-pyridin-2-yl)-piperazin-1-yl]-ethyl}-cyclohexyl)-2-cyclopropyl-acetamide]	10.1 nM
CC(=O)N[C@H]1CC[C@H](CCN2CCN(c3ncccc3Cl)CC2)CC1 [Example 5, N-(trans-4-{2-[4-(3-Chloro-pyridin-2-yl)-piperazin-1-yl]-ethyl}-cyclohexyl)-acetamide]	1.7 nM
CC(=O)N[C@H]1CC[C@H](CCN2CCN(c3ncc(Cl)cc3Cl)CC2)CC1 [Example 6, N-(trans-4-{2-[4-(3,5-Dichloro-pyridin-2-yl)-piperazin-1-yl]-ethyl}-cyclohexyl)-acetamide]	9.64 nM
CC(=O)N[C@H]1CC[C@H](CCN2CCN(c3ccc(C(F)(F)F)nc3)CC2)CC1 [Example 7, N-(trans-4-{2-[4-(6-Trifluoromethyl-pyridin-3-yl)-piperazin-1-yl]-ethyl}-cyclohexyl)-acetamide]	5.66 nM
COc1cccnc1N1CCN(CC[C@H]2CC[C@H](NC(C)=O)CC2)CC1 [Example 9, N-(trans-4-{2-[4-(3-Methoxy-pyridin-2-yl)-piperazin-1-yl]-ethyl}-cyclohexyl)-acetamide]	10.1 nM
CC(=O)N[C@H]1CC[C@H](CCN2CCN(c3ccnc(Cl)c3Cl)CC2)CC1 [Example 10, N-(trans-4-{2-[4-(2,3-Dichloro-pyridin-4-yl)-piperazin-1-yl]-ethyl}-cyclohexyl)-acetamide]	1.7 nM

Further lines, results first:

Ki	Compound
9.64 nM	CC(=O)N[C@H]1CC[C@H](CCN2CCN(c3ncc(C(F)(F)F)cc3Cl)CC2)CC1 [Example 1, N-(trans-4-{2-[4-(3-Chloro-5-trifluoromethyl-pyridin-2-yl)-piperazin-1-yl]-ethyl}-cyclohexyl)-acetamide]
5.66 nM	COCCC(=O)N[C@H]1CC[C@H](CCN2CCN(c3ncc(C(F)(F)F)cc3Cl)CC2)CC1 [Example 2, N-(trans-4-{2-[4-(3-Chloro-5-trifluoromethyl-pyridin-2-yl)-piperazin-1-yl]-ethyl}-cyclohexyl)-3-methoxy-propionamide]
16.8 nM	CCC(=O)N[C@H]1CC[C@H](CCN2CCN(c3ncc(C(F)(F)F)cc3Cl)CC2)CC1 [Example 3, N-(trans-4-{2-[4-(3-Chloro-5-trifluoromethyl-pyridin-2-yl)-piperazin-1-yl]-ethyl}-cyclohexyl)-propionamide]
16.8 nM	NC(=O)CC(=O)N[C@H]1CC[C@H](CCN2CCN(c3ncc(C(F)(F)F)cc3Cl)CC2)CC1 [Example 8, N-(trans-4-{2-[4-(3-Chloro-5-trifluoromethyl-pyridin-2-yl)-piperazin-1-yl]-ethyl}-cyclohexyl)-malonamide]
